Laboratory results: publication PMC3274524, “In Vitro Pharmacological Characterization of RXFP3 Allosterism: An Example of Probe Dependency” (PLoS ONE, 2012)

How the values were obtained:
[1] = target: T1, norepinephrine transporter (Homo sapiens, UniProt P23975); experiment: radioligand binding selectivity panel (CEREP/in house), single concentration
T1 construct: gene SLC6A2

serotonin 5-HT1A = target: T2, serotonin 5-HT1A (Homo sapiens, UniProt P08908); experiment: as above
T2 construct: gene HTR1A
T2 sequence (P08908 1-422): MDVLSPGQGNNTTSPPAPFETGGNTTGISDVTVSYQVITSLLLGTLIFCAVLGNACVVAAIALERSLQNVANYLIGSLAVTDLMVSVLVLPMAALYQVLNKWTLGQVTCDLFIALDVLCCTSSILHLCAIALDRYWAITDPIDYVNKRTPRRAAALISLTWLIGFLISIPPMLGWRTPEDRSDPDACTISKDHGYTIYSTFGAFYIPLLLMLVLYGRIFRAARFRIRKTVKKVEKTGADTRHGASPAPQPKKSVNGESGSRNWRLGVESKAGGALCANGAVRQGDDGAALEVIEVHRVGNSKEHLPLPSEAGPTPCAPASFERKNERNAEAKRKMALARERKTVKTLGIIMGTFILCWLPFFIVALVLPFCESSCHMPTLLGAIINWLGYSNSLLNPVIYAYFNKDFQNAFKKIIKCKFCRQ

[2] = target: T3, RXFP3 (relaxin-3 receptor; GPCR135; SALPR) (Homo sapiens, UniProt Q9NSD7); experiment: Ca2+ mobilization (FLIPR) agonist curve shift, allosteric ternary complex model; also increased […]R3/I5NH2 binding in membranes; format: cell-based
T3 construct: cloned human RXFP3 receptor, stably expressed in HEK-293 cells with GqI5; with Relaxin-3NH2 (amidated orthosteric agonist; also R3/I5NH2)
T3 sequence (Q9NSD7 1-469): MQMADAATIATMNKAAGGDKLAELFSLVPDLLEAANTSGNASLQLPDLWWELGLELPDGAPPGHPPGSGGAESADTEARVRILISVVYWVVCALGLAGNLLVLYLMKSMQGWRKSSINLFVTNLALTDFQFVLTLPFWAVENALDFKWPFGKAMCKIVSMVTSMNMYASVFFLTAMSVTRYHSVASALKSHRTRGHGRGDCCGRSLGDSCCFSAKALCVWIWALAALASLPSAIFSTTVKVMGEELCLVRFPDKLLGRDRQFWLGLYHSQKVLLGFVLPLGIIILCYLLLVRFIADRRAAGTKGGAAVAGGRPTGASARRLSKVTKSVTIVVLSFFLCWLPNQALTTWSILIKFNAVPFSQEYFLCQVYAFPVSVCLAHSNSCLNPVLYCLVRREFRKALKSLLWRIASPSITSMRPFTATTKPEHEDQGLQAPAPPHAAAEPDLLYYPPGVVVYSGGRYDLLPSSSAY

dopamine transporter = target: T4, dopamine transporter (Homo sapiens, UniProt Q01959); experiment: radioligand binding selectivity panel (CEREP/in house), single concentration
T4 construct: gene SLC6A3
T4 sequence (Q01959 whole entry): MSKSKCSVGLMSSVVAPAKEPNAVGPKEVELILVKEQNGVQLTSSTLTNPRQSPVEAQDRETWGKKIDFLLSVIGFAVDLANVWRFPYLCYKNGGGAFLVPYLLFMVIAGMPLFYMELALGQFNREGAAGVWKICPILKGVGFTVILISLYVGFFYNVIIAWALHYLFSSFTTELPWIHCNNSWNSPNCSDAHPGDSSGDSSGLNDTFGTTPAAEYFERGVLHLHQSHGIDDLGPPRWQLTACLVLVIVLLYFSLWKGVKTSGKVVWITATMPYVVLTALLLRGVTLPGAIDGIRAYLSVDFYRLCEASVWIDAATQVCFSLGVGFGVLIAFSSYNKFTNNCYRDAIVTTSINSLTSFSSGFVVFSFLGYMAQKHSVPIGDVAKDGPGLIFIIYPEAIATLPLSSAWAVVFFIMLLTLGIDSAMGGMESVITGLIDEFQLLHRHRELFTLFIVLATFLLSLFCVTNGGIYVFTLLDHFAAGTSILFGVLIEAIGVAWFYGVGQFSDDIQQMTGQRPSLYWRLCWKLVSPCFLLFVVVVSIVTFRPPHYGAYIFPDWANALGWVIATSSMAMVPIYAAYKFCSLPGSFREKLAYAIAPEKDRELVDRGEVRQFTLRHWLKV

T1 sequence (P23975 whole entry): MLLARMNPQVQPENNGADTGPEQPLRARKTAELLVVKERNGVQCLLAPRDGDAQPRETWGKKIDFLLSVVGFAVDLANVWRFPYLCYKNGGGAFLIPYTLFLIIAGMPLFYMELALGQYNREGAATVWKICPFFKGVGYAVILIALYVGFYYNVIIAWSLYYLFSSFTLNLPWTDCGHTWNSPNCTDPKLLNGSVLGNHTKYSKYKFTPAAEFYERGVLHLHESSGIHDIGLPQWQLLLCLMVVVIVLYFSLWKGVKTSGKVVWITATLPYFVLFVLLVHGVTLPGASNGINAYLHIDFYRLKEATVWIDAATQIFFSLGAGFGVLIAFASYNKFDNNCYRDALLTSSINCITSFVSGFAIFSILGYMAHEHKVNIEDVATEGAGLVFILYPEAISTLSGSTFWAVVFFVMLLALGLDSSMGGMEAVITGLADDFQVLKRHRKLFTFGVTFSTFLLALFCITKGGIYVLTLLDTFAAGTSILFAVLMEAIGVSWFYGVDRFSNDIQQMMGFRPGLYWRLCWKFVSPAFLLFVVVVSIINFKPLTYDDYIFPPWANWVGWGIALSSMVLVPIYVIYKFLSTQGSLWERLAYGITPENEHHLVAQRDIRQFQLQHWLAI

COc1ccc2[nH]cc(CCN(Cc3ccc(Cl)c(Cl)c3)C(=O)Nc3cc(C(F)(F)F)cc(C(F)(F)F)c3)c2c1 [135PAM1, 3-[3,5-Bis(trifluoromethyl)phenyl]-1-(3,4-dichlorobenzyl)-1-[2-(5-methoxy-1H-indol-3-yl)ethyl]urea]
inhibition at 10 µM [1]: 59% | inhibition at 10 µM (serotonin 5-HT1A): 74% | Kb [2]: 355 nM | inhibition at 10 µM (dopamine transporter): 83%
